How the values were obtained:
Lin28a protein = molecular target: T1, Lin28a protein (Homo sapiens, UniProt Q9H9Z2); experiment: EMSA with Lin28a protein and pre-let-7d probe; assay type: binding; settings: same EMSA conditions
T1 sequence (Q9H9Z2 1-209): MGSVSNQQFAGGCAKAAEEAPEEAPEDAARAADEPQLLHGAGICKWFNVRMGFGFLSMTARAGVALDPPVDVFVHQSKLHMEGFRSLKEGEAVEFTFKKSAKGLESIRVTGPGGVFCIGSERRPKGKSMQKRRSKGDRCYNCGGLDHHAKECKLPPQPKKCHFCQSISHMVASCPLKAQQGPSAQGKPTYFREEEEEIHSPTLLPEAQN
Description: (§1) We next validated the newly developed compounds using EMSA, a non-florescent-based assay to detect Lin28b ZKD:pre-let-7 complex formation. Similar to the FP assays, we first optimized the experimental conditions by titrating: (1) IRDye800-labeled pre-let-7d RNA probe, (2) Lin28b ZKD protein, and (3) non-labeled pre-let-7 probe as a competitor (Fig. 2C). For the validation experiments, 1 μM Lin28 ZKD and 10 nM of IRDye800-labeled pre-let-7d probe were mixed with each candidate compound. Compounds C1632 and Ln15 were used as control Lin28 inhibitors, respectively. […] Regardless, we use these two biochemical assays to shortlist the most promising compounds for further characterization. […] While our inhibitors directly target the Lin28 ZKD, it is unclear whether C1632 may bind to domains other than the ZKD or allosterically disrupt Lin28’s capacity to bind its RNA substrates.
EMSA followed the standard protocols we published. An IRDye800CWN-labeled pre-Let-7d RNA probe (5’-IRD800CWN-[…]-3’) was purchased from IDT (Coralville, IA, USA). Lin28a or Lin28b proteins were incubated with 300 nM of probe in a standard 20 uL EMSA reaction in a reaction buffer containing 20 mM HEPES-NaOH, pH 7.4, 2 mM DTT, 3 mM MgCl2, 0.05% NP-40, protease inhibitors, and 0.1 ug poly[dI:dC]. After incubation for 30 min at 37 °C, reactions were loaded onto 4% non-denatured polyacrylamide gel in 0.5× TBE buffer. […]

cancer cells = test system: cancer cells; parameters: method as in PMID 27548809; settings: cited from earlier work
Lin28b ZKD [1] = molecular target: T2, Lin28b ZKD (Homo sapiens, UniProt Q6ZN17); experiment: EMSA, Lin28b ZKD:pre-let-7d complex formation; assay type: binding; settings: 1 μM Lin28 ZKD, 10 nM IRDye800-labeled pre-let-7d probe
T2 sequence (Q6ZN17 127-166 limits assumed): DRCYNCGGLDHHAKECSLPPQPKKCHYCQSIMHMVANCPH
Description: as §1
EMSA followed the standard protocols we published. An IRDye800CWN-labeled pre-Let-7d RNA probe (5’-IRD800CWN-[…]-3’) was purchased from IDT (Coralville, IA, USA). Lin28a or Lin28b proteins were incubated with 300 nM of probe in a standard 20 uL EMSA reaction in a reaction buffer containing 20 mM HEPES-NaOH, pH 7.4, 2 mM DTT, 3 mM MgCl2, 0.05% NP-40, protease inhibitors, and 0.1 ug poly[dI:dC]. After incubation for 30 min at 37 °C, reactions were loaded onto 4% non-denatured polyacrylamide gel in 0.5× TBE buffer. The RNA oligo bands were visualized by using the Li-Cor Odyssey 9120 Infrared Imaging System.

DuNE spheroids = experiment: DuNE 3D spheroid growth (Incucyte); assay type: cell-based; settings: 0-100 μM, 0-6 days, read-out: concentration to achieve 50% spheroid growth inhibition
Text: (§2) CSCs have characteristic tumorigenic, self-renewal, and differentiation properties. The self-renewal ability is hijacked by CSCs that makes them both tumorigenic and capable of sustaining long-term tumor growth, which can be evaluated by 3D spheroid and colony formation assays. We established a DuNE spheroid model in which DuNE cells formed 3D spheroids in 96-well plates (Figure S3). By integrating this 3D culture with the Incucyte live-cell imaging system, we quantified the sizes of the spheroid growth over 0–6 days to generate a spheroid growth curve. Using this model system, we treated the DuNE spheroids with increasing doses (0–100 μM) of C1632, Ln15, and Ln268 for 0–6 days. […] In addition, classic colony formation assays were used to measure the stemness in the DuNE model. Colony formation counts, which were ~50 under vehicle treatment after 14 days, decreased by 22% in C1632-treated plates, and by 75% and 96% in the Ln15 and Ln268 treated plates, respectively (Fig. 4D).
For a spheroid generation, 1000 cells/well were seeded in 96-well ULA round-bottomed plates (Corning, Amsterdam) using a multichannel pipette. 3D multicellular spheroids were spontaneously generated after 24 h culture. Plates were incubated for 6 days at 37 °C, 5% CO2, and 95% humidity. DuNE and Du145 cells were cultured in DMEM with 10% FBS. Fully automated image analysis of tumor spheroids was carried out with the Incucyte® S3 Live-Cell Analysis System. The size and shape of multicellular spheroids were analyzed by using the Incucyte® Spheroid Analysis Software Module.

DuNE cells = experiment: Colony formation assay, DuNE cells; assay type: cell-based; settings: 14 days, vs vehicle (~50 colonies)
Text: as §2
In the colony formation assays, cancer cells were seeded in 0.7% soft agar in a 6-well plate, with a 1% soft agar bottom base coating. Cells were allowed to grow for 14 days to form colonies. Colonies were stained with crystal violet and imaged by stitching 5X field images together to capture the entire well (Zeiss light microscope [Carl Zeiss]). Colony numbers were counted according to their diameters (100-300um or >300um). Three independent biological replicates were performed for all the assays.

Lin28b ZKD [2] = molecular target: T2, Lin28b ZKD; experiment: 1H-15N HSQC NMR of Lin28b-ZKD with ligand; assay type: binding; settings: ligand added in 20:1 molar ratio
Text: Given that Ln268 is derived from the parent compound Ln15, we wanted to assess whether the improved properties of Ln268 were linked to a potential difference in its interaction with Lin28 ZKD. To this end, we collected ^1H-^15N HSQC spectra of Lin28b-ZKD, Lin28b-ZKD + Ln15, and Lin28b-ZKD + Ln268. RNA binding proteins (RBPs) commonly have binding pockets that are intrinsically disordered, as evidenced by the narrow chemical shift dispersion observed in the HQSC of Lin28b-ZKD alone (Fig. 3D). Addition of either Ln15 or Ln268 led to changes in the chemical shifts of ca. 20 residues, consistent with the change in conformation of the Lin28b-ZKD segment which encompasses residues 137–160 (three of which are prolines) upon RNA binding (Fig. 3E). Although many of the peak shifts are the same for the Ln15 and Ln268 containing samples, there are around 7 resonances where the peaks disappear in the case of Ln268.
NMR spectra were recorded at 5 °C on a Bruker Avance III 850 MHz spectrometer, equipped with a TCI cryoprobe. ^1H-^15N HSQC experiments were recorded on ^13C/^15N-labeled Lin28b ZKD (230 μM), in 20 mM d-Tris-HCl (pH 7.5), 100 mM NaCl, 1 mM d-DTT, 0.02% NaN3, 0.25 mM ZnCl2 + 1 mM IDA, and 10% D2O, to which unlabeled Ln15 and Ln268 was added, respectively. The time domain matrix was 4k by 512. Four scans were acquired per t1 increment. Spectra were processed and plotted using Topspin to a final size of 8k by 1k. For the overlays, the levels were set to the same base level in all cases, with a multiplication factor of 1.1.

Lin28b ZKD [3] = molecular target: T2, Lin28b ZKD; experiment: Fluorescence polarization (FP) assay, Lin28b ZKD:pre-let-7d interaction; assay type: binding; settings: 10 nM pre-let-7d probe, 1 μM Lin28b ZKD
Description: We conducted two biochemical assays, FP and EMSA, to validate the predicted compounds. To optimize the FP assays, we performed a series of titrations using: (1) FAM-labeled pre-let-7d RNA probe, (2) Lin28b ZKD protein, and (3) non-labeled pre-let-7 probe as a competitor (Fig. 2A). These assays yielded the optimal concentrations required for the subsequent FP validation assays, namely 10 nM for the pre-let-7d probe and 1 μM for Lin28b ZKD protein. The FP signal from the free probe was set as 0%, while the signal from the probe-ZKD complex in the absence of compounds was set as 100%. C1632 was used as a control Lin28 inhibitor (Fig. 2B). […] Since the docking pocket is almost identical between Lin28a and Lin28b homologs, we repeated the FP assays using Lin28a ZKD (Figure S2).
The fluorescein amidites (FAM)-tagged pre-Let-7d probe with the sequence of […] was purchased from Integrated DNA Technologies (IDT). The probe at the concentrations ranging from 1 nM to 50 uM was incubated with Lin28B (ZKD) or Lin28 (CSD+ZKD) to a final volume of 30 uL at room temperature for 20 min. To read the fluorescence, a TECAN 500 machine was used. Fluorescence polarization was calculated using the following equation:
P=(Fparrallel−Fperpendicular)/(Fparrallel+FperpendicularP)
where P is the fluorescence polarization reading, F parallel is the fluorescence intensity acquired from the parallel excitation plane, and F perpendicular is the fluorescence intensity acquired from the perpendicular direction of the excitation plane. The total fluorescence intensity is estimated using the following equation:
F=Fparallel+2FperpendicularF.
All the raw FP signal data from the TECAN 500 FP results were analyzed using Prism 8.0 (GraphPad, San Diego, CA, USA); normalized curves were plotted and IC50 values were estimated. All FP data were repeated three to five times.
Figure S1. Lin28b ZKD protein was incubated with the indicated compounds at the concentration of 0, 0.1, 0.2, 0.5, 1, 2, 5, 10, 20, 50, 100, and 200uM. FP signals were measured and plotted relative to that from vehicle.

| SMILES | inhibition of Lin28a protein (EMSA) (Lin28a protein) | concentration needed for inhibitory effects on cancer cells (cancer cells) | inhibition of Lin28b ZKD:pre-let-7d complex formation (EMSA) (Lin28b ZKD [1]) | IC50 (DuNE spheroids) | decrease of colony formation counts (DuNE cells) | residues of Lin28b-ZKD with changed chemical shifts (1H-15N HSQC) (Lin28b ZKD [2]) | IC50 (Lin28b ZKD [3]) |
| --- | --- | --- | --- | --- | --- | --- | --- |
| CC(=O)N(C)c1cccc(-c2ccc3nnc(C)n3n2)c1 [C1632, reference compound] | did not observe any obvious inhibition | exceeding 100 μM | did not observe any obvious inhibition | 100 µM | 22% | – | – |
| O=c1[nH]c(Nc2ccccc2O)cs1 [Ln15] | – | – | – | 50 µM | 75% | ca. 20 residues | 9 µM |
